The term Papp A→B denotes how fast a substance crosses the layer from the apical side. Read a low Papp A→B as slow passage.

The subject of data set [1] is Caco-2 monolayer cells. Nature of the data set: Caco-2 apical to basolateral (A to B) absorption/transport assay. Conditions: for % Absorbed: Caco-2 monolayer, 37° C., 5% CO2; for % Absorbed / Trsp: apical to basolateral, 2 hours incubation; for Trsp: Caco-2 transport rate; for Ratio (Caco-2 transport ratio): ratio of the transport rate to the transport rate of the reference compound mannitol. Background: Caco-2 cells form a polarised layer with tight junctions and transporters.
Description: (§1) Values for Caco-2 transport are also expressed herein as transport ratios that represent the ratio of the transport rate for the proband (e.g. tri(alkylcarboxylato) gallium(III) compound) to the transport rate of a reference compound. Mannitol was the reference compound used in the calculation of the Caco-2 transport ratios discussed herein.
(§2) The evaluation protocol of the apical to basolateral (A to B) absorption of a test article in Caco-2 monolayer cells is known to those of skill in the art as follows.
(§3) Caco-2 cells are plated in individual Transwells® in 24-well tissue culture plates and cultured for 3 days to establish the cultures. After 3 days, the cells are tested for transepithelial electrical resistance (TEER) as a measure of the formation of tight junctions between cells. Only cells with a TEER equal to or greater than about 330 Ω·cm^2 cm^2 are used. The proband or the control article (reference) is applied to the apical side of Caco-2 cells and incubated for 2 hours (37° C., 5% CO2). At t=2 hr, the media in each well are collected and stored until later analysis. Aliquots of the dosing solution are retained for analysis along with the samples.
(§4) For test samples, the analysis is repeated three times while the N value for all the control groups is six. The controls are [^3H]propranolol for fast transport and [^3H]mannitol for slow transport.
(§5) The gallium product proband and dosing solution samples are analyzed by inductive coupled plasma optical emission spectrometry (ICP-OCP) to measure gallium concentration. Any non-gallium test articles and dosing solution samples are analyzed by HPLC. Positive controls are analyzed using scintillation counting.

Experiment in data set [2]: as above
Conditions: human, Caco-2.
Description: as §1, §2, §3, §4, §5

`Cc1occc(=O)c1[O-].Cc1occc(=O)c1[O-].Cc1occc(=O)c1[O-].[Ga+3]` [Gallium Maltolate]: in data set [1], the “% Absorbed” value is recorded as 24.793%, the Trsp was 107.610 nm/s and the “Ratio (Caco-2 transport ratio)” value is reported as 9.5.
Take `OC[C@@H](O)[C@@H](O)[C@H](O)[C@H](O)CO` [Mannitol]: in data set [1], the “% Absorbed” value was found to be 2.603% and the “Ratio (Caco-2 transport ratio)” value worked out at 1. Besides, in data set [2], the apparent permeability from apical to basolateral (Papp A→B) at 2 h amounted to 1.13 ×10⁻⁶ cm/s.
Regarding `CC(C)NCC(O)COc1cccc2ccccc12` (stereo not drawn) [Propranalol], in data set [1], the “% Absorbed” value amounted to 24.118%, the Trsp was determined as 104.679 nm/s and the “Ratio (Caco-2 transport ratio)” value was 9.3.
Turning to “Tri(octanoato) Gallium (III) Product [Example 1]”, in data set [1], the “% Absorbed” value came to 9.890%, the Trsp came out at 42.930 nm/s and the “Ratio (Caco-2 transport ratio)” value was determined as 3.8.
Consider “Tri(palmitato) Gallium (III) Product [Example 2]”, for which, in data set [1], the “% Absorbed” value was 72.000%, the Trsp is 312.500 nm/s and the “Ratio (Caco-2 transport ratio)” value came out at 27.7.
Regarding “Tri(palmitato) Gallium (III) Product [Example 3]”, in data set [1], the “% Absorbed” value came to 31.579%, the Trsp was determined as 137.060 nm/s and the “Ratio (Caco-2 transport ratio)” value came to 12.1.
